# From patent EP4745117A1, “NOVEL INDENONE DERIVATIVE AND USE THEREOF” (Amyloid Solution Inc., priority 2023, dated 2025)
# Like-named read-outs stand apart in the source and are kept apart here.
# Experiments:
# [1] = target: Tau-RD3 (Tau repeat domain 3) (Homo sapiens, UniProt P10636); experiment: Tau disaggregation test by Thioflavin-T analysis; type: biochemical; details: for EC50: Tau-RD3 35 µM aggregated 24 hours, then compound 0 - 500 µM for 48 hours at 37 °C, concentration disaggregating 50 % of aggregates vs control, read-out: EC50 (µM) Tau
# Procedure: (§1) Each compound was dissolved in DMSO to a concentration of 10 mM. Then, the compounds were diluted with 6 % DMSO (in DW) for use.
# (§2) Amyloid-beta and tau solutions were prepared by dissolving Aβ1-42 or Tau-RD3 (Tau repeat domain 3) monomers in DMSO to a concentration of 10 mM. Then, the solutions were diluted to 100 µM with DW and stored on ice.
# (§3) Meanwhile, Thioflavin-T was dissolved in 50 mM glycine buffer (pH 8.5) to a concentration of 5 mM. Then, the solution was diluted to 5 µM with 50 mM glycine buffer (pH 8.5) and stored in the dark, protected from light.
# (§4) The amyloid-beta and tau solutions prepared in Example 1.1 were each placed in 1.5 mL microcentrifuge tubes to a concentration of 50 µM or 35 µM, respectively, and then reacted at 37 °C for 24 hours.
# (§5) To each 1.5 mL microcentrifuge tube in which the amyloid-beta and tau aggregation was complete, the compounds were added at concentrations ranging from 500 µM down to 0 µM by serial dilution, and then further reacted at 37 °C for 48 hours.
# (§6) 25 µL of each completed reaction solution was added to each well of a 96-well fluorescence analysis plate, and 75 µL of the Thioflavin-T solution was added to each well. After reacting for 5 minutes at room temperature in the dark, the fluorescence value was measured at 450 nm (excitation) and 485 nm (emission) using a multi-mode microplate reader.
# (§7) The fluorescence value of the group (control group) treated with only amyloid-beta or tau and aggregated for 72 hours was designated as 100 %. The fluorescence values measured after treating the amyloid-beta and tau aggregates (formed by reacting for 24 hours) with each compound by concentration and reacting for an additional 48 hours were converted to relative values.
# [2] = target: T1, Aβ1-42 (Homo sapiens, UniProt P05067); experiment: Amyloid-beta disaggregation test by Thioflavin-T analysis; type: biochemical
# T1 construct: dissolving Aβ1-42 or Tau-RD3 (Tau repeat domain 3) monomers in DMSO
# Procedure: as §1, §2, §3, §4, §5, §6, §7
# [3] = Aβ1-42 50 µM aggregated 24 hours, then compound 0 - 500 µM for 48 hours at 37 °C, concentration disaggregating 50 % of aggregates vs control, read-out: EC50 (µM) Aβ
# [4] = statement in words summarising the Thioflavin-T results
# Chain of Tau-RD3 (Tau repeat domain 3) (P10636 623-653 limits assumed): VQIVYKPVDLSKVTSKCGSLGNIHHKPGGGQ
# T1 sequence (P05067 672-713 limits assumed): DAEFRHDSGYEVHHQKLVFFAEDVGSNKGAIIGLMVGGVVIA
EC50 [1] [µM],"EC50 [2, 3] [µM]",SMILES,"disaggregation effect for tau protein aggregates [1, 4]","disaggregation effect for amyloid-beta protein aggregates [2, 4]",EC50 [2] [µM]
20 to 100,< 20,"Cc1ncsc1C1=C(c2ccc(CN3CCOCC3)cc2)C(=O)c2ccccc21 [Compound 87, 3-(4-methylthiazol-5-yl)-2-(4-(morpholinomethyl)phenyl)-1H-inden-1-one]",,,
< 20,< 20,"Cc1ncsc1C1=C(c2cnn(C)n2)C(=O)c2cc(OCCCc3ccccc3)ccc21 [Compound 33, 2-(2-methyl-2H-1,2,3-triazol-4-yl)-3-(4-methylthiazol-5-yl)-6-(3-phenylpropoxy)-1H-inden-1-one]",,,
100 to 250,> 250,"Cc1ncsc1C1=C(C#N)C(=O)c2cc(OCCCc3ccccc3)ccc21 [Compound 34, 3-(4-methylthiazol-5-yl)-1-oxo-6-(3-phenylpropoxy)-1H-indene-2-carbonitrile]",,,
> 250,> 250,"O=C1C(c2ccccc2)=C(c2ccccc2)c2ncccc21 [Compound 98, 6,7-diphenyl-5H-cyclopenta[b]pyridin-5-one]",,,
> 250,100 to 250,"COc1cccc(OC)c1C1=C(c2cccnc2)C(=O)c2cc(O)ccc21 [Compound 45-8, 3-(2,6-dimethoxyphenyl)-6-hydroxy-2-(pyridin-3-yl)-1H-inden-1-one]",,,
20 to 100,20 to 100,"COCCOc1ccc2c(c1)C(=O)C(c1cccnc1)=C2c1scnc1C [Compound 37, 6-(2-methoxyethoxy)-3-(4-methylthiazol-5-yl)-2-(pyridin-3-yl)-1H-inden-1-one]",,,
< 20,20 to 100,"O=C1C(Br)=C(c2ccccc2)c2ccccc21 [Compound 6-2, 2-bromo-3-phenyl-1H-inden-1-one]",,,
> 250,20 to 100,"O=C1C(c2ccccc2)=C(c2cccc(N3CCOCC3)c2)c2ccccc21 [Compound 15, 3-(3-morpholinophenyl)-2-phenyl-1H-inden-1-one]",,,
< 20,< 20,"Cc1cc(OCCCc2ccccc2)cc2c1C(c1scnc1C)=C(c1cccnc1)C2=O [Compound 46, 4-methyl-3-(4-methylthiazol-5-yl)-6-(3-phenylpropoxy)-2-(pyridin-3-yl)-1H-inden-1-one]",remarkably excellent disaggregation effect,remarkably excellent disaggregation effect,
> 250,> 250,"CNc1ccc2c(c1)C(=O)C(c1ccccc1)=C2c1ccccc1 [Compound 67, 6-(methylamino)-2,3-diphenyl-1H-inden-1-one]",,,
100 to 250,20 to 100,"Cc1cc(N2CCN(C)CC2)cc2c1C(c1ccccc1)=C(c1ccccc1)C2=O [Compound 71, 4-methyl-6-(4-methylpiperazin-1-yl)-2,3-diphenyl-1H-inden-1-one]",,,
20 to 100,100 to 250,"O=C1C(N2CCOCC2)=C(c2ccccc2)c2ccccc21 [Compound 8, 2-morpholino-3-phenyl-1H-inden-1-one]",,,
> 250,< 20,"Cc1ncsc1C1=C(c2cnccn2)C(=O)c2cc(OCCCc3ccccc3)ccc21 [Compound 41, 3-(4-methylthiazol-5-yl)-6-(3-phenylpropoxy)-2-(pyrazin-2-yl)-1H-inden-1-one]",,,
> 250,100 to 250,"CCOC(=O)c1ccccc1C1=C(c2ccccc2C)c2ccccc2C1=O [Compound 99-7, ethyl 2-(1-oxo-3-(o-tolyl)-1H-inden-2-yl)benzoate]",,,
100 to 250,> 250,"Cn1cc(C2=C(c3cccnc3)C(=O)c3cc(O)ccc32)cn1 [Compound 42-7, 6-hydroxy-3-(1-methyl-1H-pyrazol-4-yl)-2-(pyridin-3-yl)-1H-inden-1-one]",,,

SMILES,EC50 [1] [µM],"EC50 [2, 3] [µM]","disaggregation effect for tau protein aggregates [1, 4]","disaggregation effect for amyloid-beta protein aggregates [2, 4]",EC50 [2] [µM]
"Cc1ncsc1C1=C(c2ccn(C3CCN(C)CC3)n2)C(=O)c2cc(OCCCc3ccccc3)ccc21 [Compound 29, 2-(1-(1-methylpiperidin-4-yl)-1H-pyrazol-3-yl)-3-(4-methylthiazol-5-yl)-6-(3-phenylpropoxy)-1H-inden-1-one]",> 250,,,,> 250
